Laboratory results from patent US11945794B2, “Nuclear transport modulators and uses thereof” (Karyopharm Therapeutics Inc., priority 2013, dated 2024).

How the values were obtained:
Format in all cases: cell-based
CRM1 = molecular target: T1, CRM1 (Homo sapiens, UniProt O14980); assay: Inhibition of nuclear export, RevGFP assay in U2OS-RevGFP cells; conditions: approximately 1 hour incubation
T1 construct: endogenous in cells; host or cells: U2OS cells stably expressing Rev-GFP
Procedure: The inhibition of CRM1 mediated nuclear export by compounds of the invention was determined in a RevGFP assay. Rev is a protein from human immunodeficiency virus type 1 (HIV-1) and contains a nuclear export signal (NES) in its C-terminal domain and a nuclear localization signal (NLS) in its N-terminal domain. Nuclear export of Rev protein is dependent on the classical NES/CRM1 pathway (Neville et al, 1997, Kau et al, 2003).
In this assay, U2OS-RevGFP cells were seeded onto clear-bottom, black, 384-well plates the day before the experiment. Compounds were serially diluted 1:2 starting from 40 μM in a separate 384-well plate in DMEM, and then transferred onto cells. Cells were incubated with compound for approximately 1 hour before fixation with 3.7% formaldehyde and nuclei staining with Hoechst 33258. The amount of GFP in cell nuclei was measured and compound IC50s were determined (Kau et al, 2003).

MM1S cells = assay: MTT cell proliferation assay; conditions: Homo sapiens, MM1.S, approximately 64-72 hours
Procedure: (§1) The MTT cell proliferation assay was used to study the cytotoxic properties of the compounds. The assay was performed according to the method described by Roche Molecular Biochemicals, with minor modifications. The assay is based on the cleavage of the tetrazolium salt, MTT, in the presence of an electron-coupling reagent. The water-insoluble formazan salt produced must be solubilized in an additional step. Cells grown in a 96-well tissue culture plate were incubated with the MTT solution for approximately 4 hours. After this incubation period, a water-insoluble formazan dye formed. After solubilization, the formazan dye was quantitated using a scanning multi-well spectrophotometer (ELISA reader). […] The cells were seeded at 5,000-10,000 cells in each well of 96-well plate in 100 μL of fresh culture medium and were allowed to attach overnight. The stock solutions of the compounds were diluted in 100 μL cell culture medium to obtain eight concentrations of each test compound, ranging from 1 nM to 30 μM. […] All optical densities were measured at 490 nm using a Vmax Kinetic Microplate Reader (Molecular Devices). In most cases, the assay was performed in duplicate and the results were presented as a mean percent inhibition to the negative control±SE. The following formula was used to calculate the percent of inhibition: Inhibition (%)=(1−(ODo/OD))×100.
(§2) The compounds were tested against Z138, MM1S and 3T3 cells. The Z138 cell line is a mature B-cell acute lymphoblastic leukemia cell line derived from a patient with chronic lumphocytic leukemia. The MM1S cell line was established from the peripheral blood of a human multiple myeloma patient. 3T3 cells are standard fibroblast cells; they were originally isolated from Swiss mouse embryo tissue.

Z138 cells = assay: MTT cell proliferation assay; conditions: Homo sapiens, Z-138, approximately 64-72 hours
Procedure: as §1, §2

3T3 cells = assay: MTT cell proliferation assay; conditions: Mus musculus, NIH3T3, approximately 64-72 hours
Procedure: as §1, §2

T1 sequence (O14980 whole entry): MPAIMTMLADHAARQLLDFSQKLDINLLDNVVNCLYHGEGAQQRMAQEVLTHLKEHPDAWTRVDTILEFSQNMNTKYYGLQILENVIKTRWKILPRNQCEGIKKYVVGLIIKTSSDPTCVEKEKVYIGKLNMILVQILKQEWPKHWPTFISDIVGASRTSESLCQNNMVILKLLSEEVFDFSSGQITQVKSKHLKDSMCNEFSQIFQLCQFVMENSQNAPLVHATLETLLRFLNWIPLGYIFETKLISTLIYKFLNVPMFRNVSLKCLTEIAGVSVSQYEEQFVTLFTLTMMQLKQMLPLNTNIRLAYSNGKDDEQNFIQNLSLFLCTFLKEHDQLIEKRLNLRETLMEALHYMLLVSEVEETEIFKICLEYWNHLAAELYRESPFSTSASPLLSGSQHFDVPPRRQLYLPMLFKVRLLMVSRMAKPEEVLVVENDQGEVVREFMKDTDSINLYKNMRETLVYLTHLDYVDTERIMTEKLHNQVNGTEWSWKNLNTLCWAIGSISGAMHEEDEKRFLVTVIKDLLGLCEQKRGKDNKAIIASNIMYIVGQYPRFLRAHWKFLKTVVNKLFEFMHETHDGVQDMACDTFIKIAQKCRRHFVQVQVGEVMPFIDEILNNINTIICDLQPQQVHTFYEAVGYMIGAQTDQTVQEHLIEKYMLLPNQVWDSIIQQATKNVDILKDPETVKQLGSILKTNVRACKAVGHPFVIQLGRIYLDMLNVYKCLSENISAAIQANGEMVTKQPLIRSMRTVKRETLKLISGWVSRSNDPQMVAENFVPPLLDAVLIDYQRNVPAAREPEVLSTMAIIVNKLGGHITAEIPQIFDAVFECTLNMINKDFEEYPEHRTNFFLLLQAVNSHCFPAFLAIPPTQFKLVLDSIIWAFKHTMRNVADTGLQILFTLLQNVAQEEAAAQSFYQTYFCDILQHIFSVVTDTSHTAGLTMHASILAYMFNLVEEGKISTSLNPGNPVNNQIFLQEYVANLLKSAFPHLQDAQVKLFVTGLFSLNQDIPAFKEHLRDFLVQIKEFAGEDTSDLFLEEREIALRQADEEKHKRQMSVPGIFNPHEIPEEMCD

Structure (SMILES) | IC50 (CRM1) [nM] | IC50 (MM1S cells) [nM] | IC50 (Z138 cells) [nM] | IC50 (3T3 cells) [nM]
CC(C)OC(=O)/C(=C/n1cnc(-c2cc(C(F)(F)F)cc(C(F)(F)F)c2)n1)c1cncnc1 [Compound 115, isopropyl (E)-3-(3-(3,5-bis(trifluoromethyl)phenyl)-1H-1,2,4-triazol-1-yl)-2-(pyrimidin-5-yl)acrylate] | 100 to 5000 | 100 to 5000 |  | 
NC(=O)/C(=C/n1cnc(-c2cc(C(F)(F)F)cc(C(F)(F)F)c2)n1)c1cnc(N)nc1 [Compound 136, (E)-2-(2-aminopyrimidin-5-yl)-3-(3-(3,5-bis(trifluoromethyl)phenyl)-1H-1,2,4-triazol-1-yl)acrylamide] | 100 to 5000 | < 100 | 100 to 5000 | > 30000
N#CC(=Cn1cnc(-c2cc(C(F)(F)F)cc(C(F)(F)F)c2)n1)c1ccccn1 [Compound 100, 3-(3-(3,5-bis(trifluoromethyl)phenyl)-1H-1,2,4-triazol-1-yl)-2-(pyridin-2-yl)acrylonitrile] | > 30000 | > 30000 | > 30000 | > 30000
NC(=O)/C(=C/n1cnc(-c2cc(C(F)(F)F)cc(C(F)(F)F)c2)n1)c1ccncc1 [Compound 108, (E)-3-(3-(3,5-bis(trifluoromethyl)phenyl)-1H-1,2,4-triazol-1-yl)-2-(pyridin-4-yl)acrylamide] | < 100 | < 100 | 100 to 5000 | > 30000
CN(C)C(=O)/C(=C/n1cnc(-c2cc(C(F)(F)F)cc(C(F)(F)F)c2)n1)c1ccncc1 [Compound 113, (E)-3-(3-(3,5-bis(trifluoromethyl)phenyl)-1H-1,2,4-triazol-1-yl)-N,N-dimethyl-2-(pyridin-4-yl)acrylamide] | 5000 to 30000 | 100 to 5000 |  | 
Cc1noc(C)c1/C(=C\n1cnc(-c2cc(C(F)(F)F)cc(C(F)(F)F)c2)n1)C(N)=O [Compound 118, (E)-3-(3-(3,5-bis(trifluoromethyl)phenyl)-1H-1,2,4-triazol-1-yl)-2-(3,5-dimethylisoxazol-4-yl) acrylamide] | 100 to 5000 | 100 to 5000 | 100 to 5000 | > 30000
NC(=O)/C(=C/n1cnc(-c2cc(C(F)(F)F)cc(C(F)(F)F)c2)n1)c1cncc(Cl)c1 [Compound 141, (E)-3-(3-(3,5-bis(trifluoromethyl)phenyl)-1H-1,2,4-triazol-1-yl)-2-(5-chloropyridin-3-yl)acrylamide] | 100 to 5000 | < 100 | 100 to 5000 | > 30000
NC(=O)/C(=C/n1cnc(-c2cc(C(F)(F)F)cc(C(F)(F)F)c2)n1)c1ccc(Cl)nc1 [Compound 143, (E)-3-(3-(3,5-bis(trifluoromethyl)phenyl)-1H-1,2,4-triazol-1-yl)-2-(6-chloropyridin-3-yl)acrylamide] | 100 to 5000 | < 100 | 100 to 5000 | > 30000
NC(=O)/C(=C\n1cnc(-c2cc(C(F)(F)F)cc(C(F)(F)F)c2)n1)c1ccnc(F)c1 [Compound 155, (Z)-3-(3-(3,5-bis(trifluoromethyl)phenyl)-1H-1,2,4-triazol-1-yl)-2-(2-fluoropyridin-4-yl)acrylamide] | < 100 | < 100 | < 100 | 100 to 5000
NC(=O)/C(=C/n1cnc(-c2cc(C(F)(F)F)cc(C(F)(F)F)c2)n1)c1cccnc1 [Compound 104, (E)-3-(3-(3,5-bis(trifluoromethyl)phenyl)-1H-1,2,4-triazol-1-yl)-2-(pyridin-3-yl)acrylamide] | 100 to 5000 | < 100 | < 100 | 100 to 5000
NC(=O)/C(=C/n1cnc(-c2cc(C(F)(F)F)cc(C(F)(F)F)c2)n1)c1cncc(F)c1 [Compound 132, (E)-3-(3-(3,5-bis(trifluoromethyl)phenyl)-1H-1,2,4-triazol-1-yl)-2-(5-fluoropyridin-3-yl)acrylamide] | < 100 |  |  | 
COc1ccc(/C(=C\n2cnc(-c3cc(C(F)(F)F)cc(C(F)(F)F)c3)n2)C(=O)OC(C)C)cn1 [Compound 120, isopropyl (E)-3-(3-(3,5-bis (trifluoromethyl)phenyl)-1H-1,2,4-triazol-1-yl)-2-(6-methoxypyridin-3-yl) acrylate] | 100 to 5000 | 100 to 5000 | 100 to 5000 | > 30000
Cc1noc(C)c1/C(=C\n1cnc(-c2cc(C(F)(F)F)cc(C(F)(F)F)c2)n1)C(=O)OC(C)C [Compound 116, isopropyl (E)-3-(3-(3,5-bis (trifluoromethyl)phenyl)-1H-1,2,4-triazol-1-yl)-2-(3,5-dimethylisoxazol-4-yl) acrylate] | 100 to 5000 | 100 to 5000 |  | 
N#C/C(=C/n1cnc(-c2cc(C(F)(F)F)cc(C(F)(F)F)c2)n1)c1ccncc1 [Compound 105, (E)-3-(3-(3,5-bis(trifluoromethyl)phenyl)-1H-1,2,4-triazol-1-yl)-2-(pyridin-4-yl)acrylonitrile] | 100 to 5000 | 100 to 5000 |  | > 30000
N#Cc1cncc(/C(=C\n2cnc(-c3cc(C(F)(F)F)cc(C(F)(F)F)c3)n2)C(N)=O)c1 [Compound 148, (E)-3-(3-(3,5-bis(trifluoromethyl)phenyl)-1H-1,2,4-triazol-1-yl)-2-(5-cyanopyridin-3-yl)acrylamide] | < 100 | < 100 | < 100 | > 30000
CC(C)OC(=O)/C(=C/n1cnc(-c2cc(C(F)(F)F)cc(C(F)(F)F)c2)n1)c1cccnc1 [Compound 101, (E)-isopropyl 3-(3-(3,5-bis(trifluoromethyl)phenyl)-1H-1,2,4-triazol-1-yl)-2-(pyridin-3-yl)acrylate] | 5000 to 30000 | < 100 | 100 to 5000 | 5000 to 30000
CC(C)OC(=O)/C(=C/n1cnc(-c2cc(C(F)(F)F)cc(C(F)(F)F)c2)n1)c1cnn(C)c1 [Compound 130, isopropyl (E)-3-(3-(3,5-bis(trifluoromethyl)phenyl)-1H-1,2,4-triazol-1-yl)-2-(1-methyl-1H-pyrazol-4-yl)acrylate] | 100 to 5000 | < 100 |  | 
NC(=O)/C(=C/n1cnc(-c2cc(C(F)(F)F)cc(C(F)(F)F)c2)n1)c1nccs1 [Compound 111, (Z)-3-(3-(3,5-bis(trifluoromethyl)phenyl)-1H-1,2,4-triazol-1-yl)-2-(thiazol-2-yl)acrylamide] | < 100 | < 100 |  | > 30000
NC(=O)/C(=C/n1cnc(-c2cc(C(F)(F)F)cc(C(F)(F)F)c2)n1)c1ccnc(C(F)(F)F)c1 [Compound 147, (E)-3-(3-(3,5-bis(trifluoromethyl)phenyl)-1H-1,2,4-triazol-1-yl)-2-(2-(trifluoromethyl)pyridin-4-yl)acrylamide] | < 100 | < 100 | 100 to 5000 | 100 to 5000
NC(=O)/C(=C/n1cnc(-c2cc(C(F)(F)F)cc(C(F)(F)F)c2)n1)c1ccncc1F [Compound 138, (E)-3-(3-(3,5-bis(trifluoromethyl)phenyl)-1H-1,2,4-triazol-1-yl)-2-(3-fluoropyridin-4-yl)acrylamide] | < 100 | < 100 | < 100 | 100 to 5000
Cn1cc(/C(=C\n2cnc(-c3cc(C(F)(F)F)cc(C(F)(F)F)c3)n2)C(N)=O)cn1 [Compound 114, (E)-3-(3-(3,5-bis(trifluoromethyl)phenyl)-1H-1,2,4-triazol-1-yl)-2-(1-methyl-1H-pyrazol-4-yl)acrylamide] | 100 to 5000 | < 100 |  | 
